Source: article PMC12583094, “A novel antioxidant peptide from black soybean [Glycine max (L.) Merr.] with verified MPO interaction and multi-scale antioxidant activity” (Frontiers in Nutrition, 2025)

What was measured:
Assay type in all cases: cell-based, human
HaCaT cells [1] = settings: 500 μg/mL H2O2 1 h, no peptide; CCK8, 450 nm; p < 0.0001 vs control; mean ± SD, n = 3
Protocol: HaCaT cell recovery, culture, and subculture were performed with reference to the method described by Yusha Zi et al., with some modifications ([23]). For recovery, cryopreserved HaCaT cells were retrieved from liquid nitrogen storage and quickly thawed in a 37 °C water bath with gentle shaking. Just before complete thawing, the tube was removed from the water bath, and the cell suspension was immediately transferred into a 15 mL centrifuge tube containing 9 mL of pre-warmed complete medium. The complete medium consisted of DMEM supplemented with 10% fetal bovine serum (FBS) and 1% penicillin–streptomycin (P/S). Cells were centrifuged at 800 rpm for 5 min at 4 °C. After discarding the supernatant, the cell pellet was resuspended in 5 mL of fresh complete medium and transferred to a culture flask equipped with a ventilated cap. Cells were incubated in a humidified incubator at 37 °C with 5% CO₂ and 95% humidity. For subculturing, when cell confluence reached approximately 80%, the medium was discarded, and the cells were gently rinsed three times with 2 mL of PBS. […] The plate was incubated for an appropriate period, and the absorbance at 450 nm was measured using a microplate reader. Cell viability was calculated using the following formula: Cell viability(%)=100%×(ODsample−ODblank)/(ODcontrol−ODblank). […] The absorbance was measured and cell viability was calculated under the same conditions.

HaCaT cells [2] = assay: ROS quantification in H2O2-treated HaCaT cells (DCFH-DA); settings: 500 μg/mL H2O2 1 h, no peptide; DCFH-DA fluorescence 488/525 nm normalized per mg protein; p < 0.0001 vs control (541.25 ± 25.03 AU); mean ± SD, n = 3
Protocol: After digestion and resuspension, HaCaT cells were seeded into a 6-well plate at a concentration of 1 × 10^4 cells/ml, with 2 mL of culture medium added to each well. The cells were incubated for 24 h to allow attachment and adaptation. After 24 h, the cells were divided into treatment groups. The control and blank groups were replaced with an equal volume of normal culture medium, while the treatment group was incubated with a 1,000 μg/mL peptide solution for 24 h. After that, both the control and treatment groups were treated with 500 μg/mL H2O2 and incubated for an additional 1 h.
After incubation, the medium was discarded, and DCFH-DA probe was diluted in serum-free medium at a 1:1000 ratio. Then, 1.5 mL of the diluted solution was added to each well, and the cells were incubated at 37 °C in the dark for 20 min. The blank group was treated with an equal volume of serum-free medium. […] The fluorescence intensity was measured using a fluorescence spectrophotometer with an excitation wavelength of 488 nm and an emission wavelength of 525 nm. The total protein concentration of each sample was determined using the BCA method. The fluorescence value was then normalized to the fluorescence intensity per milligram of protein, and the results were statistically analyzed.

HaCaT cells [3] = assay: CCK8 cell viability, concentration screening in HaCaT cells; settings: 1 h
Protocol: HaCaT cell recovery, culture, and subculture were performed with reference to the method described by Yusha Zi et al., with some modifications ([23]). For recovery, cryopreserved HaCaT cells were retrieved from liquid nitrogen storage and quickly thawed in a 37 °C water bath with gentle shaking. Just before complete thawing, the tube was removed from the water bath, and the cell suspension was immediately transferred into a 15 mL centrifuge tube containing 9 mL of pre-warmed complete medium. The complete medium consisted of DMEM supplemented with 10% fetal bovine serum (FBS) and 1% penicillin–streptomycin (P/S). Cells were centrifuged at 800 rpm for 5 min at 4 °C. After discarding the supernatant, the cell pellet was resuspended in 5 mL of fresh complete medium and transferred to a culture flask equipped with a ventilated cap. Cells were incubated in a humidified incubator at 37 °C with 5% CO₂ and 95% humidity.
For subculturing, when cell confluence reached approximately 80%, the medium was discarded, and the cells were gently rinsed three times with 2 mL of PBS. Then, 1 mL of 0.25% trypsin solution was added, and the flask was incubated at 37 °C for about 1 min. Once the cells became round and partially detached (as observed under a microscope), 3 mL of complete medium was added to terminate the digestion. The cell suspension was gently pipetted to disperse the cells and transferred to a 15 mL centrifuge tube. After centrifugation at 800 rpm for 5 min at 4 °C, the supernatant was discarded. The pellet was resuspended in fresh medium and seeded into new culture flasks at a ratio of 1:3, followed by incubation under the same culture conditions.
After digestion and resuspension, HaCaT cells were seeded into a 96-well plate at a concentration of 1 × 10^^4 cells/ml, with 100 μL of complete culture medium added to each well. Three wells with no cells were treated with an equal volume of complete culture medium as the blank group. The cells were incubated for 24 h to allow attachment. For the experiment, the control and blank groups were replaced with an equal volume of fresh medium, while the treatment groups were treated with a concentration gradient of 100, 200, 500, 1,000, and 1,500 μg/mL H2O2 and peptide samples. The H2O2 group was incubated for 1 h, while the peptide sample group was incubated for 24 h. After incubation, the original medium was discarded, and 100 μL of CCK8 working solution (prepared from 90% DMEM + 10% CCK8 reagent) was added to each well. The blank group, which contained no cells, was used as the reference. The plate was incubated for an appropriate period, and the absorbance at 450 nm was measured using a microplate reader. Cell viability was calculated using the following formula:
Cell viability(%)=100%×(ODsample−ODblank)/(ODcontrol−ODblank).

SMILES: OO [H₂O₂, hydrogen peroxide]
- HaCaT cell viability, H2O2 alone (HaCaT cells [1]): 47.82 ± 1.87%
- ROS level, H2O2 alone (HaCaT cells [2]): 2128.33 ± 127.37 AU
- effect on HaCaT cell viability at 200 μg/mL H2O2 (HaCaT cells [3]; H2O2 200 μg/mL, CCK8, vs control, p < 0.01): A significant reduction
- HaCaT cell viability after 500 μg/mL H2O2 (screening) (HaCaT cells [3]; H2O2 500 μg/mL, CCK8, 450 nm, mean ± SD, n = 3): 49.05 ± 4.24%
- dead HaCaT cells at 1500 μg/mL H2O2 (HaCaT cells [3]; H2O2 1500 μg/mL, CCK8, 450 nm): over 90%
